Experimental data taken from PMC9792171, “Design and synthesis of new thiazolidinone/uracil derivatives as antiproliferative agents targeting EGFR and/or BRAF^V600E” (Frontiers in Chemistry, 2022).

Key:
[1] = system: four human cancer cell lines (A-549, MCF-7, Panc-1, HT-29); assay: Antiproliferative MTT assay, average of four cancer cell lines (GI50); type: cell-based; settings: for IC50: Homo sapiens, average of A-549, MCF-7, Panc-1, HT-29
Protocol: Using the MTT assay ([Abdelrahman et al., 2017]; [El-Sherief et al., 2018]) and doxorubicin as the reference drug, 3a-f and 5a-l were tested for antiproliferative activity against four human cancer cell lines: Panc-1 (pancreas cancer cell line), MCF-7 (breast cancer cell line), HT-29 (colon cancer cell line), and A-549 (epithelial cancer cell line). […]
(§1) To explore the antiproliferative potential of compounds MTT assay was performed according to previously reported procedure (El-Sherief, H.A.M., et al., 2018; Abdelrahman, M. H., et al., 2017) using different cell lines to explore the antiproliferative potential of compounds propidium iodide fluorescence assay was performed using different cell lines. To calculate the total nuclear DNA, a fluorescent dye (propidium iodide, PI) is used which can attach to the DNA, thus offering a quick and precise technique. PI cannot pass through the cell membrane and its signal intensity can be considered as directly proportional to quantity of cellular DNA. Cells whose cell membranes are damaged or have changed permeability are counted as dead ones. The assay was performed by seeding the cells of different cell lines at a density of 3000-7500 cells/well (in 200µl medium) in culture plates followed by incubation for 24h at 37 °C in humidified 5% CO2/95% air atmospheric conditions. The medium was removed; the compounds were added to the plates at 10 µM concentrations (in 0.1% DMSO) in triplicates, followed by incubation for 48 h. DMSO (0.1%) was used as control. After incubation, medium was removed followed by the addition of PI (25 µl, 50µg/mL in water/medium) to each well of the plates. At -80 °C, the plates were allowed to freeze for 24 h, followed by thawing at 25 °C. A fluorometer (Polar-Star BMG Tech) was used to record the readings at excitation and emission wavelengths of 530 and 620 nm for each well. The percentage cytotoxicity of compounds was calculated using the following formula: […]

[2] = system: Panc-1 (pancreas cancer cell line); assay: Antiproliferative MTT assay, Panc-1; type: cell-based; settings: Homo sapiens; Panc-1, MTT; read-out: Antiproliferative activity IC50 ± SEM (nM) Panc-1
Protocol: (§2) Using the MTT assay ([Abdelrahman et al., 2017]; [El-Sherief et al., 2018]) and doxorubicin as the reference drug, 3a-f and 5a-l were tested for antiproliferative activity against four human cancer cell lines: Panc-1 (pancreas cancer cell line), MCF-7 (breast cancer cell line), HT-29 (colon cancer cell line), and A-549 (epithelial cancer cell line).
as §1

[3] = system: MCF-7 (breast cancer cell line); assay: Antiproliferative MTT assay, MCF-7; type: cell-based; settings: Homo sapiens, MCF7; MCF-7, MTT; read-out: Antiproliferative activity IC50 ± SEM (nM) MCF-7
Protocol: as §2, §1

[4] = system: A-549 (epithelial cancer cell line); assay: Antiproliferative MTT assay, A-549; type: cell-based; settings: Homo sapiens, A549; A-549, MTT; read-out: Antiproliferative activity IC50 ± SEM (nM) A-549
Protocol: as §2, §1

[5] = system: HT-29 (colon cancer cell line); assay: Antiproliferative MTT assay, HT-29; type: cell-based; settings: Homo sapiens; HT-29, MTT; read-out: Antiproliferative activity IC50 ± SEM (nM) HT-29
Protocol: as §2, §1

[6] = Cell viability assay (MTT), MCF-10A; type: cell-based; settings: human, MCF-10A mammary gland epithelial cells, MCF-10A cells, incubated 4 days
Protocol: To test the viability of new compounds, the human mammary gland epithelial (MCF-10A) cell line was used ([Youssif et al., 2019]; [Mahmoud et al., 2022]). MCF-10A cells were incubated with compounds 3a-f and 5a-l for 4 days before being tested for viability using the MTT assay.
MTT assay was carried out to study the effect of compounds on mammary epithelial cells (MCF-10A) (Youssif, B. G. M. et al., 2019; Mahmoud, M. A., et al., 2022). The medium in which cells were propagated contained Dulbecco's modified Eagle's medium (DMEM)/ Ham's F-12 medium (1:1) supplemented with epidermal growth factor (20 ng/mL), hydrocortisone (500 ng/mL), insulin (10 μg/mL), 2 mM glutamine and 10% foetal calf serum. After every 2-3 days, the cells were passaged using trypsin ethylenediamine tetra acetic acid (EDTA). The cells were seeded at a density of 10^4 cells mL^-1 in flat-bottomed culture plates containing 96 wells each. After 24 h, medium was removed from the plates and the compounds in (in 0.1% DMSO) were added (in 200 μL medium to yield a final concentration of 0.1% v/v) to the wells of plates. A single compound was designated with four wells followed by incubation of plates for 96h at 37°C. After incubation, medium was removed completely from the plates followed by addition of MTT (0.4 mg/mL in medium) to each well and subsequent incubation of plates for 3h. MTT (along with the medium) was removed and DMSO (150μL) was added to each well of the culture plates, followed by vortexing and subsequent measurement of absorbance (at 540 nm) using microplate reader. The data are shown as percentage inhibition of proliferation in comparison with controls containing 0.1% DMSO.

SMILES	IC50 [1] [nM]	IC50 [2] [nM]	IC50 [3] [nM]	IC50 [4] [nM]	IC50 [5] [nM]	melting point	viability at 4 days, 50 µM [6] [%]	fold less potent than compound 5j (GI50) ([1]; ratio of GI50 values)
COc1cccc2c1C(=O)c1c(O)c3c(c(O)c1C2=O)C[C@@](O)(C(=O)CO)C[C@@H]3O[C@H]1C[C@H](N)[C@H](O)[C@H](C)O1 [Doxorubicin, reference compound]	1100	1400 ± 100	900 ± 100	1200 ± 100	1000 ± 100			
C=CCNC(=S)Nc1c[nH]c(=O)[nH]c1=O [Compound 3f, 1-Allyl-3-(2,4-dioxo-1,2,3,4-tetrahydropyrimidin-5-yl)thiourea]	3900	3900 ± 300	3700 ± 300	3800 ± 300	4100 ± 300	348 to 350 °C (dec.)	89	
COC(=O)/C=C1\S/C(=N\c2c[nH]c(=O)[nH]c2=O)N(c2ccccc2)C1=O [Compound 5g, (Z)-Methyl-2-((Z)-2-((2,4-dioxo-1,2,3,4-tetrahydropyrimidin-5-yl)imino)-4-oxo-3-phenyl-thiazolidin-5-ylidene)acetate]	2500	2900 ± 200	2200 ± 200	2700 ± 200	2200 ± 200	302 to 304 °C	87	
CCOC(=O)/C=C1\S/C(=N\c2c[nH]c(=O)[nH]c2=O)N(Cc2ccccc2)C1=O [Compound 5d, (Z)-Ethyl-2-((Z)-3-benzyl-2-((2,4-dioxo-1,2,3,4-tetrahydropyrimidin-5-yl)imino)-4-oxo-thiazolidin-5-ylidene)acetate]	5150	5500 ± 500	4700 ± 400	4900 ± 500	5500 ± 500		86	approximately 5 fold
O=c1[nH]cc(NC(=S)Nc2ccccc2)c(=O)[nH]1 [Compound 3a, 1-(2,4-Dioxo-1,2,3,4-tetrahydropyrimidin-5-yl)-3-phenylthiourea]	8800	8800 ± 800	8500 ± 800	8900 ± 800	9100 ± 800	340 to 342 °C	86	
Cc1ccc(NC(=S)Nc2c[nH]c(=O)[nH]c2=O)cc1 [Compound 3b, 1-(2,4-Dioxo-1,2,3,4-tetrahydropyrimidin-5-yl)-3-(p-tolyl)thiourea]	3800	4100 ± 300	3600 ± 300	3700 ± 300	3900 ± 300	338 to 340 °C	87	
C=CCN1C(=O)/C(=C/C(=O)OC)S/C1=N\c1c[nH]c(=O)[nH]c1=O [Compound 5l, (Z)-Methyl-2-((Z)-3-allyl-2-((2,4-dioxo-1,2,3,4-tetrahydropyrimidin-5-yl)imino)-4-oxothiazolidin-5-ylidene)acetate]	6400	6400 ± 600	6500 ± 600	6000 ± 600	6600 ± 600	314 to 316 °C	86	
CCOC(=O)/C=C1\S/C(=N\c2c[nH]c(=O)[nH]c2=O)N(C)C1=O [Compound 5e, (Z)-Ethyl-2-((Z)-2-((2,4-dioxo-1,2,3,4-tetrahydropyrimidin-5-yl)imino)-3-methyl-4-oxo-thiazolidin-5-ylidene)acetate]	7100	7300 ± 700	6700 ± 700	7200 ± 600	7200 ± 700	302 to 304 °C	86	
C=CCN1C(=O)/C(=C/C(=O)OCC)S/C1=N\c1c[nH]c(=O)[nH]c1=O [Compound 5f, (Z)-Ethyl-2-((Z)-3-allyl-2-((2,4-dioxo-1,2,3,4-tetrahydropyrimidin-5-yl)imino)-4-oxo-thiazolidin-5-ylidene)acetate]	8500	8800 ± 700	7900 ± 700	8200 ± 700	8900 ± 700	310 to 312 °C	89	
CNC(=S)Nc1c[nH]c(=O)[nH]c1=O [Compound 3e, 1-(2,4-Dioxo-1,2,3,4-tetrahydropyrimidin-5-yl)-3-methylthiourea]	10000	9800 ± 800	9600 ± 800	9700 ± 800	10800 ± 900	332 to 334 °C	89	
CCOC(=O)/C=C1\S/C(=N\c2c[nH]c(=O)[nH]c2=O)N(c2ccccc2)C1=O [Compound 5a, (Z)-Ethyl-2-((Z)-2-((2,4-dioxo-1,2,3,4-tetrahydropyrimidin-5-yl)imino)-4-oxo-3-phenyl-thiazolidin-5-ylidene)acetate]	3450	3300 ± 300	3100 ± 300	3500 ± 300	3900 ± 300	320 to 322 °C	91	
O=c1[nH]cc(NC(=S)NCc2ccccc2)c(=O)[nH]1 [Compound 3d, 1-Benzyl-3-(2,4-dioxo-1,2,3,4-tetrahydropyrimidin-5-yl)thiourea]	4150	4300 ± 400	3900 ± 400	4100 ± 400	4300 ± 400	350 to 352 °C (dec.)	91	
COC(=O)/C=C1\S/C(=N\c2c[nH]c(=O)[nH]c2=O)N(C)C1=O [Compound 5k, (Z)-Methyl-2-((Z)-2-((2,4-dioxo-1,2,3,4-tetrahydropyrimidin-5-yl)imino)-3-methyl-4-oxothiazolidin-5-ylidene)acetate]	5700	5900 ± 500	5100 ± 500	5700 ± 600	6200 ± 600	300 to 302 °C	89	
